Assay results published in publication PMC5218480 (PLoS ONE, 2017).

System: MV-4-11 cells
Assay: Gene expression microarray analysis (Affymetrix PrimeView) and GSEA
Format: cell-based, human
Set-up: RFU PODN (11730768_x_at) / Fold change /veh PODN (11730768_x_at) / RFU LINC00158 (11744669_a_at) / Fold change /veh LINC00158 (11744669_a_at) / RFU DUSP10 (11751237_a_at) / Fold change /veh DUSP10 (11751237_a_at) / RFU ID3 (11757404_x_at) / Fold change /veh ID3 (11757404_x_at) / RFU PLEKHG5 (11737974_s_at) / Fold change /veh PLEKHG5 (11737974_s_at) / RFU LRRC4B (11730491_at) / Fold change /veh LRRC4B (11730491_at) / RFU GIMAP4 (11747438_a_at) / Fold change /veh GIMAP4 (11747438_a_at) / RFU KRT8 (11758183_x_at) / Fold change /veh KRT8 (11758183_x_at) / RFU CNN1 (11734310_a_at) / Fold change /veh CNN1 (11734310_a_at) / RFU VPS37D (11726825_at) / Fold change /veh VPS37D (11726825_at) / RFU C10orf10 (11716522_x_at) / Fold change /veh C10orf10 (11716522_x_at) / RFU KIR2DL2 /// KIR2DL4 /// KIR2DL5A /// KIR2DL5B /// KIR2DS1 /// KIR2DS2 /// KIR2DS3 /// KIR2DS4 /// KIR3DL3 /// KIR3DL3 /// KIR3DS1 (11738374_at) / Fold change /veh KIR2DL2 /// KIR2DL4 /// KIR2DL5A /// KIR2DL5B /// KIR2DS1 /// KIR2DS2 /// KIR2DS3 /// KIR2DS4 /// KIR3DL3 /// KIR3DL3 /// KIR3DS1 (11738374_at) / RFU C1QL1 (11718748_at) / Fold change /veh C1QL1 (11718748_at) / RFU TMPRSS4 (11747572_a_at) / Fold change /veh TMPRSS4 (11747572_a_at) / RFU HAMP (11756126_x_at) / Fold change /veh HAMP (11756126_x_at) / RFU RNFT2 (11725882_a_at) / Fold change /veh RNFT2 (11725882_a_at) / RFU NR4A2 (11747474_a_at) / Fold change /veh NR4A2 (11747474_a_at) / RFU ABCC12 (11746883_a_at) / Fold change /veh ABCC12 (11746883_a_at) / RFU TMEM136 (11760407_x_at) / Fold change /veh TMEM136 (11760407_x_at) / RFU CLDN22 /// WWC2 (11732394_at) / Fold change /veh CLDN22 /// WWC2 (11732394_at) / RFU HLA-DPB1 (11760878_x_at) / Fold change /veh HLA-DPB1 (11760878_x_at) / RFU SPINT1 (11716480_a_at) / Fold change /veh SPINT1 (11716480_a_at) / RFU GAP43 (11754022_s_at) / Fold change /veh GAP43 (11754022_s_at) / RFU A4GNT (11735810_at) / Fold change /veh A4GNT (11735810_at) / RFU PRB3 (11715151_x_at) / Fold change /veh PRB3 (11715151_x_at) / RFU TUBB4B (11761932_at) / Fold change /veh TUBB4B (11761932_at) / RFU CAPN14 (11732068_a_at) / Fold change /veh CAPN14 (11732068_a_at) / RFU TMCC2 (11721928_a_at) / Fold change /veh TMCC2 (11721928_a_at) / RFU IRGQ (11745062_a_at) / Fold change /veh IRGQ (11745062_a_at) / RFU FAM174B (11720279_a_at) / Fold change /veh FAM174B (11720279_a_at) / RFU TMPRSS4 (11748680_a_at) / Fold change /veh TMPRSS4 (11748680_a_at) / RFU FAM212B (11763350_a_at) / Fold change /veh FAM212B (11763350_a_at) / RFU PLEKHG5 (11743358_a_at) / Fold change /veh PLEKHG5 (11743358_a_at) / RFU ZSCAN30 (11745921_a_at) / Fold change /veh ZSCAN30 (11745921_a_at) / RFU CMKLR1 (11741424_a_at) / Fold change /veh CMKLR1 (11741424_a_at) / RFU LOC101060620 /// MAPK8IP1 (11723275_at) / Fold change /veh LOC101060620 /// MAPK8IP1 (11723275_at) / RFU SPTSSB (11747773_x_at) / Fold change /veh SPTSSB (11747773_x_at) / RFU PRSS12 (11739890_at) / Fold change /veh PRSS12 (11739890_at) / RFU BIN1 (11741810_x_at) / Fold change /veh BIN1 (11741810_x_at) / RFU WNT11 (11732464_a_at) / Fold change /veh WNT11 (11732464_a_at) / RFU C10orf10 (11716521_a_at) / Fold change /veh C10orf10 (11716521_a_at) / RFU C5orf56 (11738089_at) / Fold change /veh C5orf56 (11738089_at) / RFU CYB561 (11721691_x_at) / Fold change /veh CYB561 (11721691_x_at) / RFU ANKRD19P (11752326_a_at) / Fold change /veh ANKRD19P (11752326_a_at) / RFU OR2T12 /// OR2T33 /// OR2T8 (11738714_s_at) / Fold change /veh OR2T12 /// OR2T33 /// OR2T8 (11738714_s_at) / RFU VCAN (11748164_a_at) / Fold change /veh VCAN (11748164_a_at) / RFU JSRP1 (11732532_at) / Fold change /veh JSRP1 (11732532_at) / RFU KRTAP10-11 (11738290_x_at) / Fold change /veh KRTAP10-11 (11738290_x_at) / RFU MYO3A (11730013_a_at) / Fold change /veh MYO3A (11730013_a_at) / RFU EBF3 (11725865_a_at) / Fold change /veh EBF3 (11725865_a_at) / RFU CAMK2N1 (11719241_x_at) / Fold change /veh CAMK2N1 (11719241_x_at) / RFU C5orf56 (11738088_a_at) / Fold change /veh C5orf56 (11738088_a_at) / RFU OLFML3 (11715873_a_at) / Fold change /veh OLFML3 (11715873_a_at) / RFU LOC100653217 /// NTM (11731650_a_at) / Fold change /veh LOC100653217 /// NTM (11731650_a_at) / RFU MAPK11 (11762145_a_at) / Fold change /veh MAPK11 (11762145_a_at) / RFU FIZ1 (11724087_x_at) / Fold change /veh FIZ1 (11724087_x_at) / RFU OASL (11726364_x_at) / Fold change /veh OASL (11726364_x_at) / RFU SOX15 (11748057_x_at) / Fold change /veh SOX15 (11748057_x_at) / RFU CD79A (11719716_a_at) / Fold change /veh CD79A (11719716_a_at) / RFU HIST1H1D (11736915_at) / Fold change /veh HIST1H1D (11736915_at) / RFU CASKIN2 (11723855_a_at) / Fold change /veh CASKIN2 (11723855_a_at) / RFU LOC730098 (11760151_x_at) / Fold change /veh LOC730098 (11760151_x_at) / RFU OR4N2 (11742367_at) / Fold change /veh OR4N2 (11742367_at) / RFU PRRT2 (11749266_a_at) / Fold change /veh PRRT2 (11749266_a_at) / RFU SNX32 (11753110_a_at) / Fold change /veh SNX32 (11753110_a_at) / RFU CDHR5 (11726645_a_at) / Fold change /veh CDHR5 (11726645_a_at) / RFU RCAN1 (11760418_a_at) / Fold change /veh RCAN1 (11760418_a_at) / RFU FAM167A (11723789_a_at) / Fold change /veh FAM167A (11723789_a_at) / RFU FAM26E (11764081_at) / Fold change /veh FAM26E (11764081_at) / RFU ISYNA1 (11749810_s_at) / Fold change /veh ISYNA1 (11749810_s_at) / RFU ACY1 (11761880_at) / Fold change /veh ACY1 (11761880_at) / RFU 11764098_at / Fold change /veh 11764098_at / RFU SAMD14 (11745864_x_at) / Fold change /veh SAMD14 (11745864_x_at) / RFU NPB (11741838_a_at) / Fold change /veh NPB (11741838_a_at) / RFU TMPRSS6 (11731388_a_at) / Fold change /veh TMPRSS6 (11731388_a_at) / RFU KRTAP10-2 (11738614_at) / Fold change /veh KRTAP10-2 (11738614_at) / RFU ARHGAP8 /// PRR5-ARHGAP8 (11727945_x_at) / Fold change /veh ARHGAP8 /// PRR5-ARHGAP8 (11727945_x_at) / RFU KRTAP5-7 /// NADSYN1 (11734609_at) / Fold change /veh KRTAP5-7 /// NADSYN1 (11734609_at) / RFU RASL12 (11751679_a_at) / Fold change /veh RASL12 (11751679_a_at) / RFU CDKN2B (11736163_a_at) / Fold change /veh CDKN2B (11736163_a_at) / RFU PRF1 (11729649_at) / Fold change /veh PRF1 (11729649_at) / RFU, ZNF638 /// ZNF638-IT1 / Fold change vs veh, ZNF638 /// ZNF638-IT1 / RFU, PANK3 / Fold change vs veh, PANK3 / RFU, SH3YL1 / Fold change vs veh, SH3YL1 / RFU, ZEB2 / Fold change vs veh, ZEB2 / RFU, NRIP1 / Fold change vs veh, NRIP1 / RFU, PTTG1IP / Fold change vs veh, PTTG1IP / RFU, CAPN2 / Fold change vs veh, CAPN2 / RFU, MED14 / Fold change vs veh, MED14 / RFU, SNORA58 / Fold change vs veh, SNORA58 / RFU, C1orf63 / Fold change vs veh, C1orf63 / RFU, LRRFIP1 / Fold change vs veh, LRRFIP1 / RFU, NDUFAF7 / Fold change vs veh, NDUFAF7 / RFU, SLC12A2 / Fold change vs veh, SLC12A2 / RFU, IBTK / Fold change vs veh, IBTK / RFU, ESF1 / Fold change vs veh, ESF1 / Fold change vs veh, TMEM50B / RFU, TAOK1 / Fold change vs veh, TAOK1 / RFU, ACBD3 / Fold change vs veh, ACBD3 / RFU, TMA16 / Fold change vs veh, TMA16 / RFU, RWDD3 / Fold change vs veh, RWDD3 / RFU, BCAT1 / Fold change vs veh, BCAT1 / RFU, EDEM3 / Fold change vs veh, EDEM3 / RFU, TMEM33 / Fold change vs veh, TMEM33 / RFU, WDR75 / Fold change vs veh, WDR75 / RFU, AHCTF1 / Fold change vs veh, AHCTF1 / RFU, TFRC / Fold change vs veh, TFRC / RFU, ZDHHC17 / Fold change vs veh, ZDHHC17 / RFU, NOM1 / Fold change vs veh, NOM1 / RFU, ARL8B / Fold change vs veh, ARL8B / RFU, ZBTB11 / Fold change vs veh, ZBTB11 / RFU, TAMM41 / Fold change vs veh, TAMM41 / RFU, KIAA1704 /// LOC100996395 / Fold change vs veh, KIAA1704 /// LOC100996395 / RFU, ING1 / Fold change vs veh, ING1 / RFU, TRMT61B / Fold change vs veh, TRMT61B / RFU, FUBP3 / Fold change vs veh, FUBP3 / RFU, TP53 / Fold change vs veh, TP53 / RFU, TNKS2 / Fold change vs veh, TNKS2 / RFU, ZFP14 / Fold change vs veh, ZFP14 / RFU, ACTR2 / Fold change vs veh, ACTR2 / RFU, PPP3R1 / Fold change vs veh, PPP3R1 / RFU, PIK3R1 / Fold change vs veh, PIK3R1 / RFU, HNRNPA1 / Fold change vs veh, HNRNPA1 / RFU, RNF170 / Fold change vs veh, RNF170 / RFU, ZNF28 / Fold change vs veh, ZNF28 / RFU, RNGTT / Fold change vs veh, RNGTT / RFU, OGT / Fold change vs veh, OGT / RFU, BRD1 / Fold change vs veh, BRD1 / RFU, MARS / Fold change vs veh, MARS / RFU, ZNF655 / Fold change vs veh, ZNF655 / RFU, FAHD1 / Fold change vs veh, FAHD1 / RFU, BDP1 / Fold change vs veh, BDP1 / RFU, LRRCC1 / Fold change vs veh, LRRCC1 / RFU, ARID1A / Fold change vs veh, ARID1A / RFU, ZNF146 / Fold change vs veh, ZNF146 / RFU, ZNF330 / Fold change vs veh, ZNF330 / RFU, GPN3 / Fold change vs veh, GPN3 / RFU, C9orf123 / Fold change vs veh, C9orf123 / RFU, N4BP2L2 / Fold change vs veh, N4BP2L2 / RFU, ARFIP1 / Fold change vs veh, ARFIP1 / RFU, FAM179B / Fold change vs veh, FAM179B / RFU, BCL10 / Fold change vs veh, BCL10 / RFU, UHRF1BP1L / Fold change vs veh, UHRF1BP1L / RFU, BET1 / Fold change vs veh, BET1 / RFU, CNOT2 / Fold change vs veh, CNOT2 / RFU, ZNF268 / Fold change vs veh, ZNF268 / Fold change vs veh, ZNF507 / RFU, DGCR2 / Fold change vs veh, DGCR2 / RFU, WDSUB1 / Fold change vs veh, WDSUB1 / Fold change vs veh, HSP90B1 /// MIR3652 / RFU, ADSS / Fold change vs veh, ADSS / RFU, GK / Fold change vs veh, GK / RFU, ZNF148 / Fold change vs veh, ZNF148 / RFU, TAF9 / Fold change vs veh, TAF9 / RFU, SLC1A5 / Fold change vs veh, SLC1A5 / RFU, SLMO2 / Fold change vs veh, SLMO2 / RFU, ABCC4 / Fold change vs veh, ABCC4 / RFU, LOC101060439 /// RAP1B / Fold change vs veh, LOC101060439 /// RAP1B / RFU, RFX7 / Fold change vs veh, RFX7 / RFU, GTPBP10 / Fold change vs veh, GTPBP10 / RFU, CNEP1R1 / Fold change vs veh, CNEP1R1 / RFU, BIVM-ERCC5 /// ERCC5 / Fold change vs veh, BIVM-ERCC5 /// ERCC5 / RFU, ILF3 / Fold change vs veh, ILF3 / RFU 11762660_at / Fold change /veh 11762660_at / RFU VCAN (11757783_s_at) / Fold change /veh VCAN (11757783_s_at) / RFU DDX43 (11728927_at) / Fold change /veh DDX43 (11728927_at) / RFU KRT8 (11758188_x_at) / Fold change /veh KRT8 (11758188_x_at) / RFU NKD1 (11759106_at) / Fold change /veh NKD1 (11759106_at) / RFU SRD5A1 (11742802_a_at) / Fold change /veh SRD5A1 (11742802_a_at) / RFU TPSAB1 /// TPSB2 (11721975_s_at) / Fold change /veh TPSAB1 /// TPSB2 (11721975_s_at) / RFU GSTM3 (11746129_a_at) / Fold change /veh GSTM3 (11746129_a_at) / RFU IL23R (11737362_x_at) / Fold change /veh IL23R (11737362_x_at) / RFU TMEM51 (11727254_a_at) / Fold change /veh TMEM51 (11727254_a_at) / RFU PIWIL2 (11732686_x_at) / Fold change /veh PIWIL2 (11732686_x_at) / RFU ORM1 (11744905_x_at) / Fold change /veh ORM1 (11744905_x_at) / RFU CCDC152 (11743942_at) / Fold change /veh CCDC152 (11743942_at) / RFU ECM1 (11717891_a_at) / Fold change /veh ECM1 (11717891_a_at) / RFU IL23R (11748794_a_at) / Fold change /veh IL23R (11748794_a_at) / RFU TNFAIP8L3 (11732012_x_at) / Fold change /veh TNFAIP8L3 (11732012_x_at) / RFU MBOAT4 (11741988_at) / Fold change /veh MBOAT4 (11741988_at) / RFU 11764193_at / Fold change /veh 11764193_at / RFU TMEM53 (11763286_at) / Fold change /veh TMEM53 (11763286_at) / RFU MAGEB2 (11727129_at) / Fold change /veh MAGEB2 (11727129_at) / RFU TMEM200A (11744735_a_at) / Fold change /veh TMEM200A (11744735_a_at) / RFU CCDC152 (11751479_a_at) / Fold change /veh CCDC152 (11751479_a_at) / RFU FAM211A (11726209_a_at) / Fold change /veh FAM211A (11726209_a_at) / RFU RGS16 (11746705_a_at) / Fold change /veh RGS16 (11746705_a_at) / RFU VCAN (11755009_s_at) / Fold change /veh VCAN (11755009_s_at) / RFU RHOB (11743442_s_at) / Fold change /veh RHOB (11743442_s_at) / RFU RGS16 (11720943_a_at) / Fold change /veh RGS16 (11720943_a_at) / RFU RGS16 (11720944_at) / Fold change /veh RGS16 (11720944_at) / RFU, VPS4B / Fold change vs veh, VPS4B / RFU, CREB1 / Fold change vs veh, CREB1 / RFU, DNAJC13 / Fold change vs veh, DNAJC13 / RFU, GNAQ / Fold change vs veh, GNAQ / RFU, CDK5R1 / Fold change vs veh, CDK5R1 / RFU, ZRANB3 / Fold change vs veh, ZRANB3 / RFU, CUL4A / Fold change vs veh, CUL4A / RFU, CCNY / Fold change vs veh, CCNY / RFU, UFL1 / Fold change vs veh, UFL1 / RFU, COG3 / Fold change vs veh, COG3 / RFU, DIAPH2 / Fold change vs veh, DIAPH2 / RFU, SKA2 / Fold change vs veh, SKA2 / RFU, AFF3 / Fold change vs veh, AFF3 / RFU, LMF1 / Fold change vs veh, LMF1 / RFU, IPO11 / Fold change vs veh, IPO11 / RFU, DFFB / Fold change vs veh, DFFB / RFU, FOXP1 / Fold change vs veh, FOXP1 / RFU, CARD8 / Fold change vs veh, CARD8 / RFU, STRN3 / Fold change vs veh, STRN3 / RFU, ADK / Fold change vs veh, ADK / RFU, RASSF2 / Fold change vs veh, RASSF2 / RFU, WIPF1 / Fold change vs veh, WIPF1 / RFU, LARP1B / Fold change vs veh, LARP1B / RFU, RASA1 / Fold change vs veh, RASA1 / RFU, RB1 / Fold change vs veh, RB1 / RFU, PPFIA1 / Fold change vs veh, PPFIA1 / RFU, MAT2A / Fold change vs veh, MAT2A / RFU, CCT5 / Fold change vs veh, CCT5 / RFU, WDR92 / Fold change vs veh, WDR92 / RFU, CUX1 / Fold change vs veh, CUX1 / RFU, TTC7A / Fold change vs veh, TTC7A / RFU, TMEM135 / Fold change vs veh, TMEM135 / RFU, DEPTOR / Fold change vs veh, DEPTOR / RFU, CPM / Fold change vs veh, CPM / RFU, DNAJB6 / Fold change vs veh, DNAJB6 / RFU, CACNA2D3 / Fold change vs veh, CACNA2D3 / RFU, DTX4 / Fold change vs veh, DTX4 / RFU, TFCP2 / Fold change vs veh, TFCP2 / RFU, GMCL1 /// GMCL1P1 / Fold change vs veh, GMCL1 /// GMCL1P1 / RFU, AEBP2 / Fold change vs veh, AEBP2 / RFU, SNHG1 /// SNORD22 /// SNORD25 /// SNORD26 /// SNORD27 /// SNORD28 /// SNORD29 /// SNORD31 / Fold change vs veh, SNHG1 /// SNORD22 /// SNORD25 /// SNORD26 /// SNORD27 /// SNORD28 /// SNORD29 /// SNORD31 / Fold change (Aza/veh), C12orf56 (ProbeSet 11735607_a_at) / Fold change (ACY-1035/veh), C12orf56 (ProbeSet 11735607_a_at) / Fold change (Aza/veh), FGFR1OP (ProbeSet 11751329_s_at) / Fold change (ACY-1035/veh), FGFR1OP (ProbeSet 11751329_s_at) / Fold change (Aza/veh), VPS36 (ProbeSet 11739960_a_at) / Fold change (ACY-1035/veh), VPS36 (ProbeSet 11739960_a_at) / RFU SYPL1 (11715823_x_at) / Fold change /veh SYPL1 (11715823_x_at) / RFU IGFBP7 (11715501_s_at) / Fold change /veh IGFBP7 (11715501_s_at) / RFU REEP3 (11722064_at) / Fold change /veh REEP3 (11722064_at) / RFU IGLL1 (11728026_x_at) / Fold change /veh IGLL1 (11728026_x_at): dose or concentration left out as unconfirmed
Conditions: MV-4-11 cells, 48 hours

Nc1ccc(-c2cccs2)cc1NC(=O)c1ccc2c(c1)cc(C1CC1)n2CCN1CCOCC1 [ACY-1035]
Fold change /veh TMEM51 (11727254_a_at): 0.98
